These results are taken from patent US20210380994A1, “LACTOCOCCUS LACTIS EXPRESSION SYSTEM FOR DELIVERING PROTEINS EFFICACIOUS FOR THE TREATMENT OF EPITHELIAL BARRIER FUNCTION DISORDERS” (Second Genome, Inc., priority 2018, published 2021).

The subject of data set [1] is C57BL/6 mice treated with DSS. The data set is described as follows: therapeutic DSS model of inflammatory bowel disease, treatment after 7 days DSS (Examples 5, 13B). The data set is classed as in vivo. As to the method:
Following a 7-day acclimation period, the mice were provided with drinking water containing 2.5% DSS for 7 days. Fresh 2.5% DSS water was prepared every 2 days during the 7 day DSS administration. For this therapeutic DSS study, SG-11 used to treat the animals was fused at its N-terminus to a FLAG Tag (DYKDDDDK; SEQ ID NO:32).
On day 7, normal drinking water was restored and i.p. treatments of 50 nmole/kg of SG-11 ([…]) or Gly2-GLP2 (0.2 mg/kg) were initiated. Treatments were administered twice a day (b.i.d.), with a morning and evening dose (every 8 and 16 hours) for six days.
Body weight was measured daily during the morning treatment. The colon tissue was then harvested and length was measured in centimeters and the tissue was weighed. Fecal material was flushed from the colon and residual PBS removed by gently running the colon tissue through a pair of forceps. The colon tissue was then weighed and colon weight to length ratio in mg/mm was determined. Following weight measurements proximal and distal colon tissue was banked for RNA and protein analysis and the remaining tissues was fixed in 10% neutral buffered formalin for histopathology. Statistical analysis was performed by a one-way ANOVA compared to DSS+vehicle for serum 4KDa-FITC translocation, scrum LBP concentrations, colon length, and colon weight to length ratio, while a two-way ANOVA was performed for analysis of body weight. In all analysis, a Fisher's LSD test for multiple comparisons was used. Graphs represent data pooled from two experiments, and are plotted as mean±SEM.
Histopathology analysis was performed on proximal and distal colon tissues from the therapeutic DSS model described above. Proximal (FIG. 13A) and distal (FIG. 13B) colon scores (range 0-4) are presented as well as the total score for the colon which represents the sum of proximal and distal colon scores (Range 0-8) (FIG. 13C). LMA=Loss of mucosal architecture, Edema=Edema, INF=Inflammation, TMI=Transmural inflammation, MH=Mucosal hyperplasia, DYS=Dysplasia. Graphs represent data pooled from two independent experiments, and are plotted as mean±SEM. Statistical analysis was performed by a one-way ANOVA compared to DSS+vehicle followed by a Fisher's LSD test for multiple comparisons. […]
At the end of each DSS model study, mice were fasted for 4 hours and then orally gavaged with 600 mg/kg 4KDa dextran labeled with FITC [4KDa-FITC]. One hour after the 4KDa-FITC gavage, mice were euthanized, blood was collected, and FITC signal was measured in serum. […]
Upon completion of the OSS models above. LBP levels were measured as an inflammation centric readout of barrier function following the protocol detailed in Example 5. […] LPS binding protein (LBP) levels were measured in serum using a commercially available ELISA Kit (Enzo Lift Sciences).

In data set [2] the test system is C57BL/6 mice treated with DSS. Put plainly: concurrent (prophylactic) DSS model of inflammatory bowel disease (Examples 4, 13A). The settings on record: Example 4; 50 nmoles/kg i.p. b.i.d. The format is in vivo. As to the method:
On day six, mice were fasted for four hours and then orally gavaged with 600 mg/kg 4KDa dextran labeled with fluorescein isothiocyanate (FITC) [4KDa-FITC]. One hour after the 4KDa-FITC gavage, mice were euthanized, blood was collected, and FITC signal was measured in serum. […] The magnitude of 4KDa-FITC dextran translocation observed for SG-11 was similar to the positive control of Gly2-GLP2. Results are shown in FIG. 3, and are presented as mean±SEM. The graph in FIG. 3 represents data pooled from 3 independent experiments, each using 10 mice (n=30).
SG-11 was also assessed for its effects on the levels of lipopolysaccharide (LPS) binding protein (LBP) in the blood of the DSS animal with and without SG-11 administration. LBP, which has been linked to clinical disease activity in subjects with inflammatory bowel disease, was also measured by […] in the serum of mice tested in the DSS model described in this Example. […] Results are shown in FIG. 4, and are presented as mean±SEM. The graph in FIG. 4 represents data pooled from 3 independent experiments (n=30; each experiment using 10 mice).
Body weight was measured daily from mice included in the DSS model described in this Example. Percent change from starting weight on day 0 was determined for each mouse. […]
Colon length was measured in mice included in the DSS model described above. […]

The subject of data set [3] is HCT8 enterocyte and HT29-MTX goblet cell lines. Put plainly: Oris Cell Migration assay (epithelial cell wound healing). The format is cell-based, human. The conditions noted are these: 48 hours; SG-11 1 μg/ml, EGF 30 ng/ml, staurosporine 100 nM; FIG. 2. The source says: The 96 well Oris Cell Migration assay containing plugs preventing cell attachment in the center of each well was used according to the manufacturer's instructions (Platypus Technologies. Madison, Wis.).
The migration assay plates were warmed to room temperature prior to use and plugs were removed rom 100% confluence wells prior to cell addition. The HCT8 enterocyte and HT29-MTX goblet cell lines were used at a 9:1 ratio with a total of 5×10^4 total cells added per well (4.5×10^4 HCT8 cells and 0.5×10^4 HT29-MTX cells). Cells were incubated at 37° C.+5% CO2 for 24 hours. Plugs were then removed from all control and sample wells. Control wells included cells treated with the diluent vehicle as the blank, 30 ng/ml epidermal growth factor (EGF) as the positive control, and 100 nM staurosporine as the negative control, all diluted in cRPMI. Sample wells contained SG-11 protein (SEQ ID NO:9) at a concentration of 1 μg/ml diluted in eRPMI. 100% and 0% wells were cultured in cRPMI. […] The green fluorescent viability dye Calcenin AM was added to all wells at a concentration of 0.5 μg/min PBS containing 0.9 mM CaCl2 and 0.5 mM MgCl2, incubated for 30 min at 37° C.+5% CO2, the dye was removed and cells were washed in PBS containing 0.9 mM CaCl2 and 0.5 mM MgCl2, and fluorescence was measured. […] Samples were normalized between 100% and 0% samples and values expressed as a percent growth.

The subject of data set [4] is human colonic epithelial cells (HCT8 enterocytes and HT29-MTX goblet cells). Put plainly: trans-epithelial electrical resistance (TEER) assay, epithelial/monocyte co-culture disrupted by heat killed E. coli. The data set is classed as cell-based. The conditions noted are these: staurosporine 100 nM, control compound. As to the method: Assays were performed as described below in trans-well plates where co-cultures of multiple cell types were performed utilizing a permeable membrane to separate cells. In the apical (top) chamber, human colonic epithelial cells, consisting of a mixture of enterocytes and goblet cells, were cultured until cells obtained tight junction formation and barrier function capacity as assessed by measurement of trans-epithelial electrical resistance (TEER). In the basolateral chamber, monocytes were cultured separately. Epithelial […] were primed with inflammatory cytokines. The assays measured the effect of a therapeutic protein, e.g., SG-11, on epithelial barrier function, muc2 gene expression, and production of cytokines.
Cell culture. The HCT8 human enterocyte cell line (ATCC Cat. No. CCL-244) was maintained in RPMI-1640 medium supplemented with 10% fetal bovine seam, 100 IU/ml penicillin, 100 ? g/ml streptomycin, 10 ? g/ml gentamicin and 0.25 μg/ml amphotericin (cRPMI). […]
Epithelial cell culture. […] Epithelial cells were trypsinized from culture flasks and viable cells determined by trypan blue counting. […]
Co-culture assay. […] TEER readings were measured after the IFN-© treatment and were used as the pre-treatment TEER value. […]

The conditions of data set [5]: mouse, in vivo, ip.
Method: Eight-week old C57BL/6 mice were housed 5 animals per cage and given food and water ad libitum for 7 days. Following the 7-day acclimation period, treatments were initiated concurrently with addition of 2.5% DSS to the drinking water. […] The mice were treated with 2.5% DSS in their drinking water for 6 days. […] Fresh 2.5% DSS drinking water was prepared every 2 days.

Consider Gly2-GLP2 [reference compound], for which, in data set [1] (Example 5), the “histopathology: inflammation and transmural inflammation scores” value is given as “no change”; the “histopathology: loss of mucosal architecture score” value is listed as “modest, but significant reduction”. In addition, the “serum LBP” value in data set [1] (Example 5, 50 nmole/kg i.p. b.i.d. six days after 7 days DSS, FLAG-tagged SG-11) is “no reduction in LBP”. The “colon weight to length ratio” value in data set [1] (Example 13B, p<0.01) is on record as “did not”. Also, in data set [2], the colon length entry is “significant improvement in colon length” and the “colon weight to length ratio” value was “significant improvement in colon weight to length ratios”.
Regarding “EGF: epidermal growth factor, positive control (NSDSECPLSHDGYCLHDGVCMYIEALDKYACNCVVGYIGERCQYRDLKWWELR; UniProt P01133 971-1023, looked up)”, the “percent growth (epithelial cell wound healing)” value in data set [3] was “increasing proliferation”.
Take `CN[C@@H]1C[C@H]2O[C@@](C)([C@@H]1OC)n1c3ccccc3c3c4c(c5c6ccccc6n2c5c31)C(=O)NC4` [staurosporine, reference compound]: the “percent growth (epithelial cell wound healing)” value in data set [3] is recorded as “suppressing cell proliferation”. Moreover, the TEER entry in data set [4] is given as “drastic decrease in TEER”.
Consider “fluorescently labeled bovine serum albumin: fluorescently labeled bovine serum albumin used for tracking studies”, for which the “time at which protein reached the colon” value in data set [5] turned out to be 6 h.
